From patent publication US6716628B2, “Chondrogenesis promoters and indolin-2-one derivatives” (Chugai Seiyaku Kabushiki Kaisha, priority 1999, dated 2004)

Legend:
[1] = test system: full thickness cartilage deficient rat models; assay: Cartilage repair effect in full thickness cartilage deficient rat models; format: in vivo; settings: 1.0 mmol/L, 50 μL intraarticular daily for 3 weeks from day 7 after operation
Protocol: A Kirschner wire with a 2.4 mm diameter (Mizuho Medical Instruments Corp.) was used to create a 2.5 mm-deep deficient area in the right femoral patellar surface, reaching to the marrow, in 10-week-old male CD rats (Nihon Charles River Co., Ltd.). From the seventh day after the operation, 50 μL of a 50% dimethylsulfoxide (DMSO) physiological saline solution as a solvent (DMSO: Junsei Chemical Corp.; physiological saline: Otsuka Pharmaceutical Corp.), or of a 1.0 mmol/L compound A solution, was administered into the right knee joint daily once a day for 3 weeks. The daily dosage of compound A was 81.7 μg.
On the day following the day of final administration, the right femur was taken, and fixed in 20% neutral buffered formaldehyde (Wako Pure Chemical Industries) for one week, and then demineralized for 2 weeks with 20% EDTA-4Na solution (pH 7.4, Wako Pure Chemical Industries), and the deficient area was trimmed with a razor (Feather Co., Ltd.). The trimmed area was subjected to paraffin blocking using an automatic embedding apparatus (Sakura Corp.) and paraffin (equivalent mixture of products by Kokusan Kagaku Corp. and Fisher Scientific Corp.). Here, a paraffin automatic dispensing embedding center (Miles Scientific Corp.) was used to fix each paraffin block in a tissue sample cassette (TISSUE-TEK Corp.)
Each paraffin block was cut into 2 μm-thick sections using a microtome (Daiwa Optical Instruments Corp.) and microtome knife (Feather Co., Ltd.), and then attached onto slide glass (Matsunami Glass Corp.) and dried. After drying, the sections were dipped in xylene to remove the paraffin, and then dipped in a step dilution series from ethanol to water and then stored in water. The sections were stained with 0.3% Safranin O (Merck Co.,.Ltd.) and observed with a microscope (magnification: 10× object lens), and a histological score was assigned according to a modification of the method of Wakitani et al. (J. Bone Joint Surg. 76-A, 579-592, 1994).

[2] = test system: common mouse chondrocyte and adipocyte precursor cell line (CL-1); assay: Differentiation of CL-1 into chondrocytes, alcian blue/oil red O double staining; format: cell-based; settings: 10 μmol/L, 7 days after confluency, vs vehicle control
Protocol: […] (WO98/39414) were cultured in a 4-well chamber slide (Nunc Corp.) to a cell density of 5000/cm^2. The medium used was A-MEM (GIBCO Corp.) containing 100 U/mL of penicillin (Meiji Seika Co., Ltd.), 100 μg/mL of streptomycin (Banyu Pharmaceutical Corp.) and 10% fetal bovine serum (INTERGEN Corp.). When the CL-1 cells reached confluency, compound A was added to a final concentration of 10 μmol/L, with further addition when the medium was exchanged 3 times a week during culturing for 7 days.
A slide was also prepared with ethanol (Junsei Chemical Corp.) to a final concentration of 1% in the medium as a vehicle control. On the 7th day after confluency, the plates were collected, the CL-1 cell layer was double-stained with alcian blue and oil red O, and differentiation to chondrocytes or adipocytes was observed. After culturing was completed, the cell layer was fixed for one hour at room temperature with a 4% paraformaldehyde solution (Wako Pure Chemical Industries) and then washed with 0.1N hydrochloric acid and stained overnight with an aqueous solution (pH 1.0) of 1% alcian blue (EM Science Corp.). […]

[3] = test system: common mouse chondrocyte and adipocyte precursor cell line (CL-1); assay: Uptake of 35S-labeled sulfuric acid into CL-1; format: cell-based; settings: 10 μmol/L (A and F also 1 or 5 μmol/L), 48 h culture, uptake in final 24 h
Protocol: The above-mentioned cell line CL-1 was cultured in a 96-well cell culturing plate (Wallac Corp.) for a liquid scintillation counter (Wallac Corp.) to a cell density of 1000 per well. The medium used was α-MEM (GIBCO Corp.) containing 100 U/mL of penicillin (Meiji Seika Co., Ltd.), 100 μg/mL of streptomycin (Banyu Pharmaceutical Corp.) and 10% fetal bovine serum (INTERGEN Corp.). When the CL-1 cells reached confluency, the medium was exchanged with one containing 10 μmol/L of compounds A, B, C, D, E, F and G, and after 24 hours, ^35S-labeled sulfuric acid was added at 0.5 μCi per well and culturing was continued. For compounds A and F, a medium was also prepared with a concentration of 1 or 5 μmol/L. After 24 hours, the medium was discarded and the cell layer was fixed for 2 hours at room temperature using 0.2 mL of 5% paraformaldehyde (0.1 mol/L phosphate buffer solution (pH 7.4, Wako Pure Chemical Industries) containing 0.4% cetylpyridinium chloride (Wako Pure Chemical Industries). After discarding the fixing solution, it was washed once with the same solution and the washed solution was discarded. After adding 0.1 mL of scintillator (Wallac Corp.) to the cell layer and stirring, the radioactivity was measured with a scintillation counter (Wallac Corp.).

SMILES: CCOC(CN1C(=O)[C@](CC(=O)Nc2ccc(C)cc2)(NC(=O)Nc2ccc(C)cc2)c2ccccc21)OCC [Compound A, (+)-1-(2,2-diethoxyethyl)-3-((4-methylphenyl)aminocarbonylmethyl)-3-(N′-(4-methylphenyl)ureido)indolin-2-one]
- repair of deficient areas (Safranin O staining) [1]: exhibited repair in the Safranin O-positive cartilaginous tissue
- histological score: cell morphology ([1]; vs solvent alone): significant decrease
- histological score: thickness of cartilage ([1]; vs solvent alone): significant decrease
- histological total score ([1]; vs solvent alone): significant decrease
- differentiation of CL-1 to adipocytes (oil red O) [2]: suppressed
- differentiation of CL-1 to chondrocytes (alcian blue) [2]: clearly promoted
- differentiation of CL-1 to chondrocytes (from 35S-labeled sulfuric acid uptake) [3]: clearly promote
